Patent US8399672B2, “Compound having affinity for amyloid” (Nihon Medi-Physics Co., Ltd., priority 2007, dated 2013)

Legend:
[1] = target: T1, amyloid in brain (aggregated Aβ1-42 injected into amygdaloid nucleus) (Homo sapiens, UniProt P05067); test: Confirmation of imaging of amyloid in brain (autoradiogram of brain slice after tail vein injection, Thioflavin T staining); assay type: in vivo, male Wistar rat; conditions: rat
T1 construct: Aβ1-42 (manufactured by Wako); purchased Wako
Description: (1) Aβ1-42 (manufactured by Wako) was dissolved in phosphate buffer (pH 7.4) and shaken at 37° C. for 72 hours, to obtain a 1 mg/mL suspension of aggregated Aβ (hereinafter referred to as amyloid suspension in the Examples).
(2) Under thiopental anesthesia, […] of the amyloid suspension was injected into an amygdaloid nucleus on one side of a male Wistar rat (7-week old). As a control, 2.5 μL of a phosphate buffered physiological saline solution (pH 7.4) was injected into an amygdaloid nucleus on the other side of the rat. The rats were examined 1 day after the injection of the amyloid suspension and the phosphate buffered physiological saline solution (pH 7.4).
(3) Compound 1 in a 10 mg/mL ascorbic acid-containing physiological saline solution (24 MBq/mL in radioactivity concentration), Compound 2 in a 10 mg/mL ascorbic acid-containing physiological saline solution (30 MBq/mL in radioactivity concentration) and Compound 4 in a 10 mg/mL ascorbic acid-containing physiological saline solution (32 MBq/mL in radioactivity concentration) were each prepared to obtain a sample solution. This sample solution was injected under thiopental anesthesia into the rat through the tail vein (dosage: 0.5 mL, dosed radioactivity: 12-15 MBq equivalent).
(4) Brain was removed 60 minutes after the injection to prepare a brain slice of 10 μm in thickness with a microtome (type: CM3050S, manufactured by LEICA). The brain slice was exposed to an imaging plate for 20 hours, and then image analysis was carried out by use of a Bio-imaging Analyzer (type: BAS-2500; manufactured by FUJIFILM Corporation).
(5) After the completion of the image analysis using the Bio-imaging Analyzer, pathological staining with Thioflavin T was carried out to perform imaging by use of a fluorescence microscope (manufactured by NIKON Corporation; type: TE2000-U model; excitation wavelength: 400-440 nm; detection wavelength: 470 nm). Thus, it was confirmed that amyloid was deposited on the slice (FIG. 10b, FIG. 11b and FIG. 12b).
The procedure was conducted in the same manner as in Example 23 except that a solution of Compound 3 in 10 mg/mL ascorbic acid-containing physiological saline solution (32 MBq/mL in radioactive concentration) was used as a sample solution, and a brain was removed 120 minutes after injection of the sample solution.

[2] = Measurement of transferability into brain and clearance (radioactive accumulation in brain after intravenous injection); assay type: in vivo, male Wistar rats; conditions: rats; for Radioactive accumulation in brain two minutes after the injection (in words): 2 min; for Radioactive accumulation per unit weight of brain, after 2 min.: 2 min after injection; for Radioactive accumulation per unit weight of brain, after 5 min.: 5 min after injection; for Radioactive accumulation per unit weight of brain, after 30 min.: 30 min after injection; for Radioactive accumulation per unit weight of brain, after 60 min.: 60 min after injection; for Clearance of radioactivity from brain (in words): up to 60 min
Description: Using Compounds 1, 2 and 3, a time course change of radioactive accumulation in brain of male Wistar rats (7-week old) was measured.
Compound 1 in 10 mg/mL ascorbic acid-containing physiological saline solution (24 MBq/mL in radioactive concentration), Compound 2 in 10 mg/mL ascorbic acid-containing physiological saline solution (30 MBq/mL in radioactive concentration), Compound 4 in 10 mg/mL ascorbic acid-containing physiological saline solution (32 MBq/mL in radioactive concentration) and Compound 3 in 10 mg/mL ascorbic acid-containing physiological saline solution (30 MBq/mL in radioactive concentration) were prepared to obtain sample solutions. The sample solutions were injected under thiopental anesthesia into the tail vein of the male Wistar rats (7-week old) (dosage: 0.05 mL, dosed radioactivity: 1.2-1.5 MBq equivalent). The rats were sacrificed by bleeding from abdominal artery, and brains were removed and subjected to measurement of mass of brains and further subjected to measurement of radioactivity (hereinafter referred to as A in this Example) with a single channel analyzer (detector type: SP-20 manufactured by OHYO KOKEN KOGYO Co., Ltd.) 2, 5, 30 and 60 minutes after the injection. Further, the radioactivity level of the rest of the whole body was measured in the same manner as above (hereinafter referred to as B in this Example). Using these measurement results, radioactive accumulation per unit weight of brain (% ID/g) at the respective time points of dissection was calculated in accordance with the following formula (2) (Examples 19 to 22).
Separately, [^123I]-IMPY in 10 mg/mL ascorbic acid-containing physiological saline solution (20-30 MBq/mL in radioactive concentration) was prepared, the same operation as above was conducted, and radioactive accumulation per unit weight of brain (% ID/g) at the respective time points of dissection was calculated (Comparative Example 2).
Meanwhile, three animals were used for Examples 19 to 22 and Comparative Example 2 at the respective time points.

[3] = Measurement of partition coefficient based on the octanol extraction method (log Poctanol); assay type: physicochemical; conditions: octanol / 10 mmol/L phosphate buffer (pH 7.4); for logD: read-out: logPoctanol value
Description: Partition coefficients based on the octanol extraction method (hereinafter referred to as log Poctanol) were measured, which are generally known as an indicator of permeability of compounds through the blood-brain barrier (hereinafter referred to as BBB).
Each diethyl ether solution of Compound 1 (Example 15), Compound 2 (Example 16), Compound 3 (Example 17), Compound 4 (Example 18) and [^123I]-IMPY (Comparative Example 1) was each diluted with 10 mg/mL ascorbic acid-containing physiological saline solution, and adjusted to a radioactive concentration of 20-30 MBq/mL. To 2 mL of octanol, 10 μL each of the solutions was added, and 2 mL of 10 mmol/L phosphate buffer (pH 7.4) was added, followed by stirring for 30 seconds. After each mixture was centrifuged (2000 rpm×60 min.) with a low-speed centrifuge (type: CTD4, manufactured by Hitachi Koki, Co., Ltd.), the octanol layer and the water layer were sampled each in an amount of 1 mL, and subjected to measurement of radioactivity count with an autowell gamma system (Type: ARC-301B, manufactured by Aloka). Using the obtained radioactivity count, log Poctanol was calculated in accordance with the equation (1).

[4] = reported in WO03/106439; cited from earlier work
[5] = normal mice, [125I]-labeled, cited from earlier work; for Transfer into brain: 2 minutes after administration
[6] = brain removed 60 minutes after injection

T1 sequence (P05067 672-713): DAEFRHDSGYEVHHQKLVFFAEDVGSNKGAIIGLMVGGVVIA

| SMILES | Accumulation at intracerebral amyloid / capability of imaging intracerebral amyloid [1, 6] | Radioactive accumulation in brain two minutes after the injection (in words) [2] | Radioactive accumulation per unit weight of brain, after 2 min. [2] [% ID/g] | Radioactive accumulation per unit weight of brain, after 5 min. [2] [% ID/g] | Radioactive accumulation per unit weight of brain, after 30 min. [2] [% ID/g] | Radioactive accumulation per unit weight of brain, after 60 min. [2] [% ID/g] | Clearance of radioactivity from brain (in words) [2] | logD [3] | Accumulation at intracerebral amyloid / capability of imaging intracerebral amyloid ([1]; brain removed 120 minutes after injection) | Result in reverse mutation test [4] | Transfer into brain [5] | Clearance from normal tissues [5] | logPoctanol value [3] |
| --- | --- | --- | --- | --- | --- | --- | --- | --- | --- | --- | --- | --- | --- |
| COc1ccc2nc(-c3ccc(OCCCF)c([123I])c3)cn2c1 [Compound 1, 2-[4′-(3″-fluoropropoxy)-3′-[^123I]iodophenyl]-6-methoxyimidazo[1,2-a]pyridine] | property of accumulating at intracerebral amyloid | significant radioactive accumulation | 0.74 | 0.53 | 0.11 | 0.03 | tendency to rapidly clear away in 60 minutes | 2.3 |  |  |  |  |  |
| COc1cc(-c2cn3cc([123I])ccc3n2)ccc1OCCF [Compound 2, 2-[4′-(2″-fluoroethoxy)-3′-methoxyphenyl]-6-[^123I]iodoimidazo[1,2-a]pyridine] | property of accumulating at intracerebral amyloid | significant radioactive accumulation | 0.42 | 0.26 | 0.04 | 0.02 | tendency to rapidly clear away in 60 minutes | 1.8 |  |  |  |  |  |
| COc1ccc2nc(-c3ccc(OCCF)c([123I])c3)cn2c1 [Compound 3, 2-[4′-(2″-fluoroethoxy)-3′-[^123I]iodophenyl]-6-methoxyimidazo[1,2-a]pyridine] |  | significant radioactive accumulation | 0.70 | 0.53 | 0.08 | 0.03 | tendency to rapidly clear away in 60 minutes | 2.6 | property of accumulating at intracerebral amyloid |  |  |  |  |
| Cc1cc2nc(-c3ccc(OCCO)cc3)cn2cc1[123I] [Compound 4, 2-[4′-(2″-hydroxyethoxy)phenyl]-6-[^123I]iodo-7-methylimidazo[1,2-a]pyridine] | property of accumulating at intracerebral amyloid | significant radioactive accumulation | 0.80 | 0.61 | 0.12 | 0.03 | tendency to rapidly clear away in 60 minutes | 2.7 |  |  |  |  |  |
| CC(=C(C#N)C#N)c1ccc2cc(N(C)CCF)ccc2c1 [FDDNP, 2-(1-{6-[(2-fluoroethyl)(methyl)amino]-2-naphthyl}ethylidene)malononitrile] |  |  |  |  |  |  |  |  |  | positive |  |  |  |
| CN(C)c1ccc(-c2nc3ccc(I)cc3o2)cc1 [IBOX, 6-iodo-2-[4′-(N,N-dimethylamino)phenyl]benzoxazole] |  |  |  |  |  |  |  |  |  |  | transferred into brain | insufficient in clearance from normal tissues |  |
| CN(C)c1ccc(-c2nc3ccc(I)cc3s2)cc1 [TZDM, 6-iodo-2-[4′-(N,N-dimethylamino)phenyl]benzothiazole] |  |  |  |  |  |  |  |  |  |  | transferred into brain | insufficient in clearance from normal tissues |  |
| CN(C)c1ccc(-c2cn3cc([123I])ccc3n2)cc1 [[^123I]-IMPY, reference compound] |  |  | 1.19 | 0.97 | 0.23 | 0.09 |  |  |  |  |  |  | 1.9 |
| CN(C)c1ccc(/C=C/c2ccc(I)cc2)cc1 [m-I-SB, (E)-4-dimethylamino-4′-iodostilbene] |  |  |  |  |  |  |  |  |  |  | transferred into brain | insufficient in clearance from normal tissues |  |
